Measurements reported in ChEMBL document CHEMBL1201862, “PubChem BioAssay data set” (2004).
Each block holds one compound with its values, some of them ahead of it. Active and inactive are the calls of the source.

Tests used:
[1] = target: Potassium voltage-gated channel subfamily KQT member 2 (Rattus norvegicus, UniProt O88943); experiment: blockers of KCNQ2 channel current – cell-based, automated electrophysiology, set II, rat KCNQ2, dose response (AID 588637); type: functional
[2] = NIH-3T3 fibroblast cytotoxicity, dose response, cytotoxicity control, cell-based, fluorescence, Alamar Blue, secondary assay (AID 2327); type: functional;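 further: NIH-3T3 mouse fibroblasts cultured with fluconazole at 8 µg/mL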
[3] = target: T1, Short transient receptor potential channel 4 (Mus musculus, UniProt Q9QUQ5); experiment: block of DAMGO-driven TRPC4 calcium entry – cell-based, HEK293 TRPC4/mu-opioid, Fluo-4 calcium, dose response (AID 434942); type: functional;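 further: potency of inhibitors blocking the TRPC4 calcium response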
T1 sequence (Q9QUQ5 whole entry): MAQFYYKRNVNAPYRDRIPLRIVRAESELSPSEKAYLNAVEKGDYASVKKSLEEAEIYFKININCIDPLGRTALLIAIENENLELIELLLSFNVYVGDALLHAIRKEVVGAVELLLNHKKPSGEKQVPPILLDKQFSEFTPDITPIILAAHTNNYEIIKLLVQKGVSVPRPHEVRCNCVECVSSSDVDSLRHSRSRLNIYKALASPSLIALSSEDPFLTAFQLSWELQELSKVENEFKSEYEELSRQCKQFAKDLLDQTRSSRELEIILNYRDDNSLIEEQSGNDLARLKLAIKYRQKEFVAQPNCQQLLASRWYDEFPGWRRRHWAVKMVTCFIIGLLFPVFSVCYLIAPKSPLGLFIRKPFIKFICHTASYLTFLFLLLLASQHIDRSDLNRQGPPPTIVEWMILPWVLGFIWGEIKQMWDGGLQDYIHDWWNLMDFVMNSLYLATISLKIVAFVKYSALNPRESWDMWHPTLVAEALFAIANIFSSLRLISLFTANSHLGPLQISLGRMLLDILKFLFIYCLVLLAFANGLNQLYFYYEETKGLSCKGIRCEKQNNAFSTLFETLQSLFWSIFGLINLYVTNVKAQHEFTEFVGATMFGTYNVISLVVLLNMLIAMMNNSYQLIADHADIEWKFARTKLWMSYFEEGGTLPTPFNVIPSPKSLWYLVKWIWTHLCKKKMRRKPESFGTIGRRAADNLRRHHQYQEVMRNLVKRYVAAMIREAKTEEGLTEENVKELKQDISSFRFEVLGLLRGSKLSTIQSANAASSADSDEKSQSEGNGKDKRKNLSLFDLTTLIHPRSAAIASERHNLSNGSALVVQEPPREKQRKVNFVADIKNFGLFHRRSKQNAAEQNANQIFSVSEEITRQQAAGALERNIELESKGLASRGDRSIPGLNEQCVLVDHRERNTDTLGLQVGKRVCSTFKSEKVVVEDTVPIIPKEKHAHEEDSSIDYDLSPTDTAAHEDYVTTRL

[4] = fluconazole-exposed Candida albicans growth modulators – fluorescence, retest, confirmation (AID 2467); type: functional, cell-based
[5] = NIH3T3 cell viability loss – ATP luminescence, mouse fibroblasts, counter-screen, dose response (AID 2010); type: functional, cell-based;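 further: cells exposed to compound for about 90 hours before reading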
[6] = target: Benomyl/methotrexate resistance protein (Candida albicans, UniProt P28873); experiment: Candida albicans Mdr1 pump inhibition curves – singleplex, Cherry Pick1 hits, dose response (AID 588608); type: functional
[7] = Trypanosoma cruzi growth suppression in host cells – NIH3T3 host cells, beta-gal luminescence, confirmation (AID 2044); type: functional, cell-based;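 further: intracellular parasites grown in NIH/3T3 mouse fibroblasts as host cells; luminescent beta-galactosidase reporter signal from transgenic T. cruzi replicating inside host cells; inhibitors lower the luminescence signal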
[8] = target: T2, Ubiquitin-conjugating enzyme E2 N (Homo sapiens, UniProt P61088); type: functional
T2 sequence (P61088 whole entry): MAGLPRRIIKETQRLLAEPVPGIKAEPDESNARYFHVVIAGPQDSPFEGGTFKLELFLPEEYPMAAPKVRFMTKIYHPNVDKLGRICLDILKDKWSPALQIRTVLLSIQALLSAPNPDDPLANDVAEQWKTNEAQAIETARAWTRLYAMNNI

[9] = target: T3, Tyrosine-protein phosphatase non-receptor type 22 (Homo sapiens, UniProt Q9Y2R2); experiment: PTPN22 enzyme inhibitors – biochemical, fluorescence, LYP catalytic domain, selectivity assay for LMPTP inhibitor project, dose response (AID 652006); type: functional; conditions: read-out: IC50_Mean
T3 sequence (Q9Y2R2 whole entry): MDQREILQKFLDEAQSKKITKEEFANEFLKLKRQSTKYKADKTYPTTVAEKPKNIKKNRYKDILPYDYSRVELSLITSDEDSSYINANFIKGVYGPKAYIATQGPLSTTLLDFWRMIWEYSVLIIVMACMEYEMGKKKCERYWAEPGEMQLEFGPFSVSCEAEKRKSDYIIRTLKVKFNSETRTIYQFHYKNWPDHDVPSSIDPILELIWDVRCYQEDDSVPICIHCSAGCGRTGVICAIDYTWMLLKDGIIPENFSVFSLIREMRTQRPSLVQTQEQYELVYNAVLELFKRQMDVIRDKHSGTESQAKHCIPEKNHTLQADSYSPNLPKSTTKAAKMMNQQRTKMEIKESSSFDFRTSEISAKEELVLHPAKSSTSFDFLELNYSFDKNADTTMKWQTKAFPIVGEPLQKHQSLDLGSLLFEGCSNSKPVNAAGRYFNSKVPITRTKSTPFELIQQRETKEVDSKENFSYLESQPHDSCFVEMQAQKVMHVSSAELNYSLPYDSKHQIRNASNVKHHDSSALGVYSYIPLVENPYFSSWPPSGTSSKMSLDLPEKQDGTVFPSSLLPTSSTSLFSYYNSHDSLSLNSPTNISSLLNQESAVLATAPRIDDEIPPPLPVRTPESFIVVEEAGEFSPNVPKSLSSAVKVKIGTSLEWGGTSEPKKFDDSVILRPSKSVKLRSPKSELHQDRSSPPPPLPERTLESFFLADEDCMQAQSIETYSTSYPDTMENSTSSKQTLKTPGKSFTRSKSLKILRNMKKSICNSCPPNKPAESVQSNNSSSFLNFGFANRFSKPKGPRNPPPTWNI

[10] = target: T4, Low molecular weight phosphotyrosine protein phosphatase (Homo sapiens, UniProt P24666); type: functional; conditions: read-out: IC50_Mean
[11] = target: T4, Low molecular weight phosphotyrosine protein phosphatase; type: functional; conditions: read-out: IC50_Mean; remark: listed apart in the source
[12] = target: T5, Carboxy-terminal domain RNA polymerase II polypeptide A small phosphatase 1 (Homo sapiens, UniProt Q9GZU7); experiment: CTDSP1 inhibitors, concentration-response, biochemical, absorbance readout, ultra-high-throughput screen actives (AID 540297); type: functional
T5 sequence (Q9GZU7 whole entry): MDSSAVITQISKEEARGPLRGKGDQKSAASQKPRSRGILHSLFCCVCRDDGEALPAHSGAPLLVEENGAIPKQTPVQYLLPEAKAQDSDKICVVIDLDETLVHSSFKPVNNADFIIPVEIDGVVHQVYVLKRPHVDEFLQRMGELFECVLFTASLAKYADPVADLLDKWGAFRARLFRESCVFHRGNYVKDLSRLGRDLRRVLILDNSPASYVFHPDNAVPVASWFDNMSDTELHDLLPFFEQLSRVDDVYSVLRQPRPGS

[13] = cytotoxicity toward MDA-MB-231 breast cancer cells – cell-based, CellTiter-Glo luminescence, cherry-pick, cytotoxicity control for RAD54 inhibitor project, dose response (AID 651692); type: functional
[14] = tested on: Streptococcus sp. 'group A'; experiment: Streptococcus pyogenes SK(-)GAS viability under kanamycin – luminescence, BacTiterGlo, confirmation, counter-screen for streptokinase expression inhibitor project, dose response (AID 1900); type: functional, organism-based
[15] = target: T2, Ubiquitin-conjugating enzyme E2 N; type: functional; remark: listed apart in the source
Streptococcus = experiment: GAS UMAA2166 growth inhibition – luminescence, BacTiterGlo, counter-screen for streptokinase expression inhibitor project, dose response (AID 1915); type: functional, organism-based;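 further: potency for reduction of bacterial viability or growth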
[16] = target: T6, DNA repair and recombination protein RAD54-like (Homo sapiens, UniProt Q92698); experiment: RAD54 Holliday junction migration blockers – biochemical, fluorescence, cherry-picked samples, dose series, confirmation (AID 651657); type: functional
T6 sequence (Q92698 whole entry): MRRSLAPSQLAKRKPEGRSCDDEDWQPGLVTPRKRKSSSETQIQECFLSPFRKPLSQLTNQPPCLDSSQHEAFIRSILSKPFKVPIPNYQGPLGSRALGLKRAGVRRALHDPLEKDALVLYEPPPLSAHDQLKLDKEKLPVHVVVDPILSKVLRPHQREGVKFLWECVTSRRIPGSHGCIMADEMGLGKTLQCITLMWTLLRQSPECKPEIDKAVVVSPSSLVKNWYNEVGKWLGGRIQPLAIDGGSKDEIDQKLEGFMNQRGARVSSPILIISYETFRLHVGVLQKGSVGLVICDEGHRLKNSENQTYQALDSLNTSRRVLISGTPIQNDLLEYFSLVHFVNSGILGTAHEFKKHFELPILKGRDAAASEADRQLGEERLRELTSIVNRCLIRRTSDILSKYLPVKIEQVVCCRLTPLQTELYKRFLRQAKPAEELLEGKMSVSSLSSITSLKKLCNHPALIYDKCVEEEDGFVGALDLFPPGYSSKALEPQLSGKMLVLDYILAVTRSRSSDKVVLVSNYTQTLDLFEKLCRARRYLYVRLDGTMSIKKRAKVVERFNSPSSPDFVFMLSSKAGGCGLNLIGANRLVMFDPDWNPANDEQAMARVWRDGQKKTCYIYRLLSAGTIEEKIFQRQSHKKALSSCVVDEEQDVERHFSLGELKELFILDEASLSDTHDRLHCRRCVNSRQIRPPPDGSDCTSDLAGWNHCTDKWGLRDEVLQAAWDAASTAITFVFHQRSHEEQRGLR

Bcl-2-related protein A1 = Bcl-2-related protein A1 (Mus musculus, UniProt Q07440); type: functional;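 further: confirmatory dose–response counterscreen on Bfl-1, used to check hits from a UBC13 polyubiquitin inhibitor campaign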
[17] = Fluorescence-based cell-based high throughput dose response assay for inhibitors of the interaction of nucleotide-binding oligomerization domain containing 2 (NOD2) and the receptor-interacting serine-threonine kinase 2 (RIPK2).; type: functional; conditions: Homo sapiens
[18] = target: Tyrosine-protein phosphatase non-receptor type 5 (Homo sapiens, UniProt P54829); experiment: PTPN5 enzyme inhibition – biochemical, fluorescence intensity, uHTS hits, confirmation (AID 602372); type: functional; conditions: read-out: IC50_Mean
[19] = target: Dual specificity protein phosphatase 3 (Homo sapiens, UniProt P51452); experiment: VHR phosphatase inhibition, dose response, selectivity assay for STEP inhibitor project, biochemical (AID 602374); type: functional; conditions: read-out: IC50_Mean
[20] = target: Tyrosine-protein phosphatase non-receptor type 11 (Homo sapiens, UniProt Q06124); experiment: PTPN11 enzyme inhibitors – biochemical, selectivity assay for STEP inhibitor project, dose response (AID 602367); type: functional; conditions: read-out: IC50_Mean

T4 sequence (P24666 whole entry): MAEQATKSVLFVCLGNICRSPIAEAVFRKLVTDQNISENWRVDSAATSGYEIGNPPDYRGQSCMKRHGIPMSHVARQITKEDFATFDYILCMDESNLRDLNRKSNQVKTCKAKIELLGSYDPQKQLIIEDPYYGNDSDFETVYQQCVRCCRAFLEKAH
Benomyl/methotrexate resistance protein, sequence (P28873 whole entry): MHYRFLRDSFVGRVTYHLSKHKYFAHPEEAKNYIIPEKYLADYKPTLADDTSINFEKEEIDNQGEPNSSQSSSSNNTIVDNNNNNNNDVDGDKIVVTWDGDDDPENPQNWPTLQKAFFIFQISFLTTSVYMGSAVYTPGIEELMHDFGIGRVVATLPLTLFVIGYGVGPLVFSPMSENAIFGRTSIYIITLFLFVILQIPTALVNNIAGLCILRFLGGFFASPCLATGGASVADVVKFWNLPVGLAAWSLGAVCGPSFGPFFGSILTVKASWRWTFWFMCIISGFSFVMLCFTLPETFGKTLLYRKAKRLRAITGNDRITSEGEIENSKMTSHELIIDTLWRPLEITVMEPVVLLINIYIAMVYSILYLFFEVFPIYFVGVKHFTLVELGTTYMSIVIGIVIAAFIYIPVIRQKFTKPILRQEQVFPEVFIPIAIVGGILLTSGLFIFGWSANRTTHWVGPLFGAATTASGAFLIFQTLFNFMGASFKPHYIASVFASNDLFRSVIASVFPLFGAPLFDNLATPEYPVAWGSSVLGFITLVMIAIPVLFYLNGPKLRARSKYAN
Tyrosine-protein phosphatase non-receptor type 5, sequence (P54829 whole entry): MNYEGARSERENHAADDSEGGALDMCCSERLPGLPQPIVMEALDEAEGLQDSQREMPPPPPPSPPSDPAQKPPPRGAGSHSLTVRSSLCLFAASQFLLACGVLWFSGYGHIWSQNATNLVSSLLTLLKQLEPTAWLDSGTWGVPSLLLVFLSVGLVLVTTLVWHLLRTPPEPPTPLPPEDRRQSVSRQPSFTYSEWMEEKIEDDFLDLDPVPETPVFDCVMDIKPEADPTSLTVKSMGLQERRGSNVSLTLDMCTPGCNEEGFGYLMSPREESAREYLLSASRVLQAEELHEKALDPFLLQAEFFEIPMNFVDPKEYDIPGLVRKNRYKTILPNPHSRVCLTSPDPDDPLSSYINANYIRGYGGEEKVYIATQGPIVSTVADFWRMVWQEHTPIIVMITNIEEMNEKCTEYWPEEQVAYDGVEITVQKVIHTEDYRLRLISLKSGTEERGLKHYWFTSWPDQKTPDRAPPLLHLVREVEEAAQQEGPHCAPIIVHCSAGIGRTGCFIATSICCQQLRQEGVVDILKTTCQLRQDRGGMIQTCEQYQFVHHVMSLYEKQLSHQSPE
Bcl-2-related protein A1, sequence (Q07440 whole entry, the tested form may be a part): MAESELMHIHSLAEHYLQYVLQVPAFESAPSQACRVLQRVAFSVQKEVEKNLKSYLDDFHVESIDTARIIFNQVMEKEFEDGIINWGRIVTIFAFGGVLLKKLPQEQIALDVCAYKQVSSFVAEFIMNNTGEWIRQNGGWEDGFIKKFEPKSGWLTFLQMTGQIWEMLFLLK
Dual specificity protein phosphatase 3, sequence (P51452 whole entry): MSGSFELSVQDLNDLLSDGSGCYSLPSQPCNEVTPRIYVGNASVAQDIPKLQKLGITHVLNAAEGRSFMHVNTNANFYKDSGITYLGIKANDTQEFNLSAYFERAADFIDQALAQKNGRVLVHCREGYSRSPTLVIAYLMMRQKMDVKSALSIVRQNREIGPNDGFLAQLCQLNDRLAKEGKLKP
Potassium voltage-gated channel subfamily KQT member 2, sequence (O88943 whole entry): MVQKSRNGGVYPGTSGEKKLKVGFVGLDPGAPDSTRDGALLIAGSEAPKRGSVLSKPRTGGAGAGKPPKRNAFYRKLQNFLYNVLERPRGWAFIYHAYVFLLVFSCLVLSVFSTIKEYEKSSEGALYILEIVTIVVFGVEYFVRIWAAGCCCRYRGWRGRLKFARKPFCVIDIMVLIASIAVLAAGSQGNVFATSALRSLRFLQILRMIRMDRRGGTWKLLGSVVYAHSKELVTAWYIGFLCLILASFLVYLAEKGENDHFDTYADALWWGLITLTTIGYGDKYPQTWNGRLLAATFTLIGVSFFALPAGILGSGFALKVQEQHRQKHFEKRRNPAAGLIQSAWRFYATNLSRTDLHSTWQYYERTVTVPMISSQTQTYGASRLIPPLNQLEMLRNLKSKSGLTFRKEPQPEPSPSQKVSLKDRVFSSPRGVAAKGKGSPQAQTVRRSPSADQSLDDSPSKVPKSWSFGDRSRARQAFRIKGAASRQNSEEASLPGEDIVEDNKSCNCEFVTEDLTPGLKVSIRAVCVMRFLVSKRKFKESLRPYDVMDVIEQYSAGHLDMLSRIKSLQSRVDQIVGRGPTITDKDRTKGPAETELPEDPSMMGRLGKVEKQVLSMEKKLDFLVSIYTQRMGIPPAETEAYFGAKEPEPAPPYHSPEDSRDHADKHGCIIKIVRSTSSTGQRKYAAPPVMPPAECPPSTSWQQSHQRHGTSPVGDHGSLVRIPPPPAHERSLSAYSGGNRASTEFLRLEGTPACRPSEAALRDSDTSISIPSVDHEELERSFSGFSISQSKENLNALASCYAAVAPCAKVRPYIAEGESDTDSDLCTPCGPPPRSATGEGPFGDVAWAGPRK

Structure (SMILES): COc1cc2cc(C(c3nnnn3Cc3ccc(F)cc3)N3CCCCCC3)c(O)nc2cc1OC (stereo not given)
IC50 [1]: 4.96 µM (active)

Structure (SMILES): O=C(C[n+]1cc(-c2ccc(Cl)c(Cl)c2)n2c1CCC2)N1c2ccccc2Sc2ccccc21
EC50 [2]: > 150 µM (inactive)
EC50 [3]: 1.88 µM (active)
EC50 [4]: 1.1 µM (active)
EC50 [5]: > 60 µM (not active)
EC50 [6]: 0.014 µM (active)
EC50 [7]: 0.845 µM (active)
IC50 [8]: > 20 µM (inactive)

Structure (SMILES): CN(C)CCCn1c(SCC(=O)Nc2nc(-c3cccc(Br)c3)cs2)nc2ccccc2c1=O
AC50 [13]: 13.9 µM (active)
EC50 [5]: 4.52 µM (active)
EC50 [7]: 1.66 µM (active)
EC50 [14]: 3.17 µM (active)
IC50 [8]: 5.58 µM (active)
IC50 [15]: 5.29 µM (active)
EC50 (Streptococcus): 6.99 µM (active)
AC50 [16]: 95.9 µM (active)
IC50 (Bcl-2-related protein A1): 13.1 µM (active)

Structure (SMILES): Cn1cnc([N+](=O)[O-])c1S(=O)(=O)Oc1cccc2ccccc12
IC50 [17]: 3.4 µM (active)

The remaining lines, values ahead:

IC50 [9]: 12.9 µM (active)
IC50 [10]: 8.74 µM (active)
IC50 [11]: 16.2 µM (active)
IC50 [12]: 2.3 µM (active)
Structure (SMILES): O=C(CCN1C(=O)/C(=C/c2ccc3c(c2)OCO3)SC1=S)Nc1ccc(C(=O)O)cc1

IC50 [18]: 26.5 µM (inactive)
IC50 [19]: 1.22 µM (active)
IC50 [20]: 3.15 µM (active)
Structure (SMILES): Cc1nn(C)cc1/C=N/NC(=S)Nc1ccccc1
